System: 699152-130-R-J1-PDC complex spheroid viability
Assay: Anticancer human tumor 699152-130-R-J1-PDC patient-derived pancreatic carcinoma cell line growth inhibition [POLQ]
Settings: for IC50: curve of first compound; for viability, T/C: stronger effect = lower value
In short: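 Patient-derived tumour cells were co-cultured with HUVEC and mesenchymal stem cells as multicellular spheroids at 37 °C. They were treated with POLQ inhibitors (novobiocin, ART-558, RP6685) alone or combined with other agents. Top concentrations were at or near clinical Cmax (otherwise 10 microM; SN-38 at 1 microM), decreasing in half-log steps.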

[1] = second compound 0.0316 µM, first compound 0.00316 µM
[2] = second compound 0.0316 µM, first compound 0.01 µM
[3] = second compound 0.0316 µM, first compound 0.0316 µM
[4] = second compound 0.0316 µM, first compound 0.1 µM
[5] = second compound 0.0316 µM, first compound 0.316 µM
[6] = second compound 0.0316 µM, first compound 1 µM
[7] = second compound 0.1 µM, first compound 0.00316 µM
[8] = second compound 0.1 µM, first compound 0.01 µM
[9] = second compound 0.1 µM, first compound 0.0316 µM
[10] = second compound 0.1 µM, first compound 0.1 µM
[11] = second compound 0.1 µM, first compound 0.316 µM
[12] = second compound 0.1 µM, first compound 1 µM
[13] = second compound 0.316 µM, first compound 0.00316 µM
[14] = second compound 0.316 µM, first compound 0.01 µM
[15] = second compound 0.316 µM, first compound 0.0316 µM
[16] = second compound 0.316 µM, first compound 0.1 µM
[17] = second compound 0.316 µM, first compound 0.316 µM
[18] = second compound 0.316 µM, first compound 1 µM
[19] = second compound 1 µM, first compound 0.00316 µM
[20] = second compound 1 µM, first compound 0.01 µM
[21] = second compound 1 µM, first compound 0.0316 µM
[22] = second compound 1 µM, first compound 0.1 µM
[23] = second compound 1 µM, first compound 0.316 µM
[24] = second compound 1 µM, first compound 1 µM
[25] = second compound 3.16 µM, first compound 0.00316 µM
[26] = second compound 3.16 µM, first compound 0.01 µM
[27] = second compound 3.16 µM, first compound 0.0316 µM
[28] = second compound 3.16 µM, first compound 0.1 µM
[29] = second compound 3.16 µM, first compound 0.316 µM
[30] = second compound 3.16 µM, first compound 1 µM
[31] = second compound 10 µM, first compound 0.00316 µM
[32] = second compound 10 µM, first compound 0.01 µM
[33] = second compound 10 µM, first compound 0.0316 µM
[34] = second compound 10 µM, first compound 0.1 µM
[35] = second compound 10 µM, first compound 0.316 µM
[36] = second compound 10 µM, first compound 1 µM
[37] = second compound 0.0316 µM, first compound 3.16 µM
[38] = second compound 0.0316 µM, first compound 10 µM
[39] = second compound 0.1 µM, first compound 3.16 µM
[40] = second compound 0.1 µM, first compound 10 µM
[41] = second compound 0.316 µM, first compound 3.16 µM
[42] = second compound 0.316 µM, first compound 10 µM
[43] = second compound 1 µM, first compound 3.16 µM
[44] = second compound 1 µM, first compound 10 µM
[45] = second compound 3.16 µM, first compound 3.16 µM
[46] = second compound 3.16 µM, first compound 10 µM
[47] = second compound 10 µM, first compound 3.16 µM
[48] = second compound 10 µM, first compound 10 µM
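Further: spheroids exposed to agents for 7 days before viability reading.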
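Wherever viability, T/C is given: percent of DMSO vehicle control viability so 100% = vehicle and 0% = no viable signal.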

## CCc1c2c(nc3ccc(O)cc13)-c1cc3c(c(=O)n1C2)COC(=O)[C@]3(O)CC + COC1C(OC(N)=O)C(O)C(Oc2ccc3c(O)c(NC(=O)c4ccc(O)c(CC=C(C)C)c4)c(=O)oc3c2C)OC1(C)C
Second compound 0.0316 µM
  IC50: 22.6 nM
Second compound 0.1 µM
  IC50: 21.3 nM
Second compound 0.316 µM
  IC50: 25 nM
Second compound 1 µM
  IC50: 40.5 nM
Second compound 3.16 µM
  IC50: 25.6 nM
Second compound 10 µM
  IC50: 24.9 nM
[1]
  viability, T/C: 73.5%
[2]
  viability, T/C: 51.3%
[3]
  viability, T/C: 43.5%
[4]
  viability, T/C: 41.9%
[5]
  viability, T/C: 24.4%
[6]
  viability, T/C: 9.02%
[7]
  viability, T/C: 79.7%
[8]
  viability, T/C: 49.5%
[9]
  viability, T/C: 45.1%
[10]
  viability, T/C: 37.3%
[11]
  viability, T/C: 26.5%
[12]
  viability, T/C: 10.1%
[13]
  viability, T/C: 79%
[14]
  viability, T/C: 46.1%
[15]
  viability, T/C: 47.6%
[16]
  viability, T/C: 43.4%
[17]
  viability, T/C: 22%
[18]
  viability, T/C: 12.9%
[19]
  viability, T/C: 66.9%
[20]
  viability, T/C: 57%
[21]
  viability, T/C: 51.8%
[22]
  viability, T/C: 45%
[23]
  viability, T/C: 23.1%
[24]
  viability, T/C: 7.35%
[25]
  viability, T/C: 66.7%
[26]
  viability, T/C: 51.6%
[27]
  viability, T/C: 46.9%
[28]
  viability, T/C: 40.4%
[29]
  viability, T/C: 28.5%
[30]
  viability, T/C: 7.68%
[31]
  viability, T/C: 70.5%
[32]
  viability, T/C: 55.7%
[33]
  viability, T/C: 43.6%
[34]
  viability, T/C: 39.6%
[35]
  viability, T/C: 28%
[36]
  viability, T/C: 7.11%

## C#Cc1c(F)ccc2cc(O)cc(-c3ncc4c(N5CC6CCC(C5)N6)nc(OCC56CCCN5CC(F)C6)nc4c3F)c12 (stereo not drawn) + Cc1cccc(N(C)C(=O)C2C(O)CCN2c2nc(C)cc(C(F)(F)F)c2C#N)c1
Second compound 0.0316 µM
  IC50: < 31.6 nM
Second compound 0.1 µM
  IC50: < 31.6 nM
Second compound 0.316 µM
  IC50: < 31.6 nM
Second compound 1 µM
  IC50: < 31.6 nM
Second compound 3.16 µM
  IC50: < 31.6 nM
Second compound 10 µM
  IC50: < 31.6 nM
[3]
  viability, T/C: 27.9%
[4]
  viability, T/C: 17.8%
[5]
  viability, T/C: 22.6%
[6]
  viability, T/C: 13.8%
[37]
  viability, T/C: 12.4%
[38]
  viability, T/C: 12.1%
[9]
  viability, T/C: 25.5%
[10]
  viability, T/C: 16.7%
[11]
  viability, T/C: 15.5%
[12]
  viability, T/C: 13.2%
[39]
  viability, T/C: 13.8%
[40]
  viability, T/C: 13.1%
[15]
  viability, T/C: 26.9%
[16]
  viability, T/C: 18.4%
[17]
  viability, T/C: 14.5%
[18]
  viability, T/C: 13.8%
[41]
  viability, T/C: 14.6%
[42]
  viability, T/C: 12.4%
[21]
  viability, T/C: 21.9%
[22]
  viability, T/C: 20.6%
[23]
  viability, T/C: 15.3%
[24]
  viability, T/C: 13.2%
[43]
  viability, T/C: 15.1%
[44]
  viability, T/C: 13.8%
[27]
  viability, T/C: 22.9%
[28]
  viability, T/C: 17.1%
[29]
  viability, T/C: 17.4%
[30]
  viability, T/C: 16.5%
[45]
  viability, T/C: 15.2%
[46]
  viability, T/C: 12.8%
[33]
  viability, T/C: 21.5%
[34]
  viability, T/C: 18.4%
[35]
  viability, T/C: 17.1%
[36]
  viability, T/C: 14.3%
[47]
  viability, T/C: 13.4%
[48]
  viability, T/C: 15.3%

## COc1cccc(OCCCN)c1-c1cc(Nc2cnc(C#N)cn2)n[nH]1 + Nc1ccc(C#CCN(C(=O)Cc2ncc(C(F)(F)F)cc2C(F)(F)F)c2ccc(F)cc2)nn1
Second compound 0.0316 µM
  IC50: > 1000 nM
Second compound 0.1 µM
  IC50: > 1000 nM
Second compound 0.316 µM
  IC50: > 1000 nM
Second compound 1 µM
  IC50: > 1000 nM
Second compound 3.16 µM
  IC50: > 1000 nM
Second compound 10 µM
  IC50: > 1000 nM
[1]
  viability, T/C: 90.3%
[2]
  viability, T/C: 101%
[3]
  viability, T/C: 72.8%
[4]
  viability, T/C: 64.2%
[5]
  viability, T/C: 62.4%
[6]
  viability, T/C: 65%
[7]
  viability, T/C: 92.2%
[8]
  viability, T/C: 101%
[9]
  viability, T/C: 73.4%
[10]
  viability, T/C: 59.3%
[11]
  viability, T/C: 65.8%
[12]
  viability, T/C: 56.1%
[13]
  viability, T/C: 99.3%
[14]
  viability, T/C: 93.8%
[15]
  viability, T/C: 74.8%
[16]
  viability, T/C: 68.6%
[17]
  viability, T/C: 60.8%
[18]
  viability, T/C: 59.9%
[19]
  viability, T/C: 111%
[20]
  viability, T/C: 100%
[21]
  viability, T/C: 79.6%
[22]
  viability, T/C: 69%
[23]
  viability, T/C: 62.2%
[24]
  viability, T/C: 55.8%
[25]
  viability, T/C: 109%
[26]
  viability, T/C: 94.4%
[27]
  viability, T/C: 70.1%
[28]
  viability, T/C: 60.6%
[29]
  viability, T/C: 66.1%
[30]
  viability, T/C: 65%
[31]
  viability, T/C: 121%
[32]
  viability, T/C: 92.3%
[33]
  viability, T/C: 71.8%
[34]
  viability, T/C: 64.7%
[35]
  viability, T/C: 66.3%
[36]
  viability, T/C: 60.5%

## COc1cc(C2c3cc4c(cc3C(OC3OC5COC(C)OC5C(O)C3O)C3COC(=O)C23)OCO4)cc(OC)c1O (stereo not drawn) + Cc1cccc(N(C)C(=O)C2C(O)CCN2c2nc(C)cc(C(F)(F)F)c2C#N)c1
Second compound 0.0316 µM
  IC50: 6730 nM
Second compound 0.1 µM
  IC50: > 10000 nM
Second compound 0.316 µM
  IC50: 7650 nM
Second compound 1 µM
  IC50: > 10000 nM
Second compound 3.16 µM
  IC50: > 10000 nM
Second compound 10 µM
  IC50: > 10000 nM
[3]
  viability, T/C: 111%
[4]
  viability, T/C: 108%
[5]
  viability, T/C: 76.4%
[6]
  viability, T/C: 72.2%
[37]
  viability, T/C: 52.5%
[38]
  viability, T/C: 47.6%
[9]
  viability, T/C: 101%
[10]
  viability, T/C: 84.6%
[11]
  viability, T/C: 72.9%
[12]
  viability, T/C: 72.8%
[39]
  viability, T/C: 55%
[40]
  viability, T/C: 50.8%
[15]
  viability, T/C: 102%
[16]
  viability, T/C: 96.3%
[17]
  viability, T/C: 83.4%
[18]
  viability, T/C: 74.2%
[41]
  viability, T/C: 58.9%
[42]
  viability, T/C: 47.2%
[21]
  viability, T/C: 112%
[22]
  viability, T/C: 86.1%
[23]
  viability, T/C: 81.9%
[24]
  viability, T/C: 74.9%
[43]
  viability, T/C: 63.7%
[44]
  viability, T/C: 47.3%
[27]
  viability, T/C: 98%
[28]
  viability, T/C: 101%
[29]
  viability, T/C: 71.8%
[30]
  viability, T/C: 74.4%
[45]
  viability, T/C: 62.2%
[46]
  viability, T/C: 51.2%
[33]
  viability, T/C: 101%
[34]
  viability, T/C: 77.7%
[35]
  viability, T/C: 70.6%
[36]
  viability, T/C: 75.9%
[47]
  viability, T/C: 71.1%
[48]
  viability, T/C: 55.9%
